Laboratory results as given in patent US6517836B1, “Nitrophenylaziridine compounds and their use as prodrugs” (Auckland Uniservices Limited, priority 1998, dated 2003).

Each compound was assayed on Chinese hamster fibroblast NR− line (T78-1), V79/4 transfected with an empty shuttle vector (assay: Cytotoxicity, 18 h drug exposure, V79 NR− line (T78-1)). Details: T78-1 cells, 18 h drug exposure; read-out: V-79 NR− IC50.
Format: cell-based
From the text: (§1) The Chinese hamster fibroblast NR− line (T78-1) is a V79/4 Chinese hamster fibroblast transfected with an empty shuttle vector, while the NR+ line (T79-A3) is the corresponding NR transfectant. The human colon carcinoma NR− line (WIDR) is wild-type, while the NR+ line (WC14 10) is the corresponding NR transfectant. The human ovarian carcinoma NR− line (SKOV3) is wild-type, while the NR+ line (SC3.2) is the corresponding NR transfectant. EMT6 is a mouse mammary carcinoma line, and EN2A is the NR-transformed counterpart.

| SMILES | IC50 |
| --- | --- |
| O=C(NCCCN1CCOCC1)c1cc(N2CC2)c([N+](=O)[O-])cc1[N+](=O)[O-] [Compound 5, 5-(aziridin-1-yl)-N-[3-(4-morpholino)propyl]-2,4-dinitrobenzamide] | 255 µM |
| O=C(NCCCCN1CCOCC1)c1cc(N2CC2)c([N+](=O)[O-])cc1[N+](=O)[O-] [Compound 6, N-[4-(4-morpholino)butyl]-5-(aziridin-1-yl)-2,4-dinitrobenzamide] | 237 µM |
| CN(CCN1CCOCC1)C(=O)c1cc(N2CC2)c([N+](=O)[O-])cc1[N+](=O)[O-] [Compound 4, 5-(aziridin-1-yl)-N-methyl-N-[2-(4-morpholino)ethyl]-2,4-dinitrobenzamide] | 364 µM |
| O=C(NCCN1CCOCC1)c1cc([N+](=O)[O-])cc([N+](=O)[O-])c1N1CC1 [Compound 18, 2-(aziridin-1-yl)-N-[2-(4-morpholino)ethyl]-3,5-dinitrobenzamide] | > 500 µM |

The compounds below were run on Chinese hamster fibroblast NR+ line (T79-A3), NR transfectant (assay: Cytotoxicity, 18 h drug exposure, V79 NR+ line (T79-A3)). Details: T78-1 vs T79-A3; inter-experiment average.
Format: cell-based
From the text: as §1

| SMILES | V-79 ratio of IC50s |
| --- | --- |
| O=C(NCCCN1CCOCC1)c1cc(N2CC2)c([N+](=O)[O-])cc1[N+](=O)[O-] [Compound 5, 5-(aziridin-1-yl)-N-[3-(4-morpholino)propyl]-2,4-dinitrobenzamide] | 6210 |
| O=C(NCCCCN1CCOCC1)c1cc(N2CC2)c([N+](=O)[O-])cc1[N+](=O)[O-] [Compound 6, N-[4-(4-morpholino)butyl]-5-(aziridin-1-yl)-2,4-dinitrobenzamide] | 1210 |
| CN(CCN1CCOCC1)C(=O)c1cc(N2CC2)c([N+](=O)[O-])cc1[N+](=O)[O-] [Compound 4, 5-(aziridin-1-yl)-N-methyl-N-[2-(4-morpholino)ethyl]-2,4-dinitrobenzamide] | 235 |
| O=C(NCCN1CCOCC1)c1cc([N+](=O)[O-])cc([N+](=O)[O-])c1N1CC1 [Compound 18, 2-(aziridin-1-yl)-N-[2-(4-morpholino)ethyl]-3,5-dinitrobenzamide] | >68 |

Same assay, conditions: T79-A3 cells, 18 h drug exposure; read-out: V-79 NR+ IC50

| SMILES | IC50 |
| --- | --- |
| O=C(NCCCN1CCOCC1)c1cc(N2CC2)c([N+](=O)[O-])cc1[N+](=O)[O-] [Compound 5, 5-(aziridin-1-yl)-N-[3-(4-morpholino)propyl]-2,4-dinitrobenzamide] | 0.048 µM |
| O=C(NCCCCN1CCOCC1)c1cc(N2CC2)c([N+](=O)[O-])cc1[N+](=O)[O-] [Compound 6, N-[4-(4-morpholino)butyl]-5-(aziridin-1-yl)-2,4-dinitrobenzamide] | 0.25 µM |
| CN(CCN1CCOCC1)C(=O)c1cc(N2CC2)c([N+](=O)[O-])cc1[N+](=O)[O-] [Compound 4, 5-(aziridin-1-yl)-N-methyl-N-[2-(4-morpholino)ethyl]-2,4-dinitrobenzamide] | 1.8 µM |
| O=C(NCCN1CCOCC1)c1cc([N+](=O)[O-])cc([N+](=O)[O-])c1N1CC1 [Compound 18, 2-(aziridin-1-yl)-N-[2-(4-morpholino)ethyl]-3,5-dinitrobenzamide] | 7.3 µM |

These compounds were tested on human colon carcinoma NR− line (WIDR), wild-type (assay: Cytotoxicity, 18 h drug exposure, WiDr NR− line). Details: WIDR cells, 18 h drug exposure; read-out: WiDr NR− IC50.
Format: cell-based
From the text: as §1

| SMILES | IC50 |
| --- | --- |
| O=C(NCCCN1CCOCC1)c1cc(N2CC2)c([N+](=O)[O-])cc1[N+](=O)[O-] [Compound 5, 5-(aziridin-1-yl)-N-[3-(4-morpholino)propyl]-2,4-dinitrobenzamide] | 30 µM |
| O=C(NCCCCN1CCOCC1)c1cc(N2CC2)c([N+](=O)[O-])cc1[N+](=O)[O-] [Compound 6, N-[4-(4-morpholino)butyl]-5-(aziridin-1-yl)-2,4-dinitrobenzamide] | 28 µM |
| CN(CCN1CCOCC1)C(=O)c1cc(N2CC2)c([N+](=O)[O-])cc1[N+](=O)[O-] [Compound 4, 5-(aziridin-1-yl)-N-methyl-N-[2-(4-morpholino)ethyl]-2,4-dinitrobenzamide] | 170 µM |
| O=C(NCCN1CCOCC1)c1cc([N+](=O)[O-])cc([N+](=O)[O-])c1N1CC1 [Compound 18, 2-(aziridin-1-yl)-N-[2-(4-morpholino)ethyl]-3,5-dinitrobenzamide] | 521 µM |

What follows are compounds tested on human colon carcinoma NR+ line (WC14 10), NR transfectant (assay: Cytotoxicity, 18 h drug exposure, WiDr NR+ line (WC14 10)). Details: WC14 10 cells, 18 h drug exposure; read-out: WiDr NR+ IC50.
Format: cell-based
From the text: as §1

| SMILES | IC50 |
| --- | --- |
| O=C(NCCCN1CCOCC1)c1cc(N2CC2)c([N+](=O)[O-])cc1[N+](=O)[O-] [Compound 5, 5-(aziridin-1-yl)-N-[3-(4-morpholino)propyl]-2,4-dinitrobenzamide] | 0.23 µM |
| O=C(NCCCCN1CCOCC1)c1cc(N2CC2)c([N+](=O)[O-])cc1[N+](=O)[O-] [Compound 6, N-[4-(4-morpholino)butyl]-5-(aziridin-1-yl)-2,4-dinitrobenzamide] | 0.31 µM |
| CN(CCN1CCOCC1)C(=O)c1cc(N2CC2)c([N+](=O)[O-])cc1[N+](=O)[O-] [Compound 4, 5-(aziridin-1-yl)-N-methyl-N-[2-(4-morpholino)ethyl]-2,4-dinitrobenzamide] | 8.1 µM |
| O=C(NCCN1CCOCC1)c1cc([N+](=O)[O-])cc([N+](=O)[O-])c1N1CC1 [Compound 18, 2-(aziridin-1-yl)-N-[2-(4-morpholino)ethyl]-3,5-dinitrobenzamide] | 18 µM |

Same assay, conditions: WIDR vs WC14 10; inter-experiment average

| SMILES | WiDr ratio of IC50s |
| --- | --- |
| O=C(NCCCN1CCOCC1)c1cc(N2CC2)c([N+](=O)[O-])cc1[N+](=O)[O-] [Compound 5, 5-(aziridin-1-yl)-N-[3-(4-morpholino)propyl]-2,4-dinitrobenzamide] | 120 |
| O=C(NCCCCN1CCOCC1)c1cc(N2CC2)c([N+](=O)[O-])cc1[N+](=O)[O-] [Compound 6, N-[4-(4-morpholino)butyl]-5-(aziridin-1-yl)-2,4-dinitrobenzamide] | 93 |
| CN(CCN1CCOCC1)C(=O)c1cc(N2CC2)c([N+](=O)[O-])cc1[N+](=O)[O-] [Compound 4, 5-(aziridin-1-yl)-N-methyl-N-[2-(4-morpholino)ethyl]-2,4-dinitrobenzamide] | 21 |
| O=C(NCCN1CCOCC1)c1cc([N+](=O)[O-])cc([N+](=O)[O-])c1N1CC1 [Compound 18, 2-(aziridin-1-yl)-N-[2-(4-morpholino)ethyl]-3,5-dinitrobenzamide] | 32 |

What follows are compounds tested on human ovarian carcinoma NR− line (SKOV3), wild-type (assay: Cytotoxicity, 18 h drug exposure, SKOV3 NR− line). Details: SKOV3 cells, 18 h drug exposure; read-out: SKOV NR− IC50.
Format: cell-based
From the text: as §1

| SMILES | IC50 |
| --- | --- |
| O=C(NCCCN1CCOCC1)c1cc(N2CC2)c([N+](=O)[O-])cc1[N+](=O)[O-] [Compound 5, 5-(aziridin-1-yl)-N-[3-(4-morpholino)propyl]-2,4-dinitrobenzamide] | 122 µM |
| O=C(NCCCCN1CCOCC1)c1cc(N2CC2)c([N+](=O)[O-])cc1[N+](=O)[O-] [Compound 6, N-[4-(4-morpholino)butyl]-5-(aziridin-1-yl)-2,4-dinitrobenzamide] | 151 µM |
| CN(CCN1CCOCC1)C(=O)c1cc(N2CC2)c([N+](=O)[O-])cc1[N+](=O)[O-] [Compound 4, 5-(aziridin-1-yl)-N-methyl-N-[2-(4-morpholino)ethyl]-2,4-dinitrobenzamide] | 533 µM |
| O=C(NCCN1CCOCC1)c1cc([N+](=O)[O-])cc([N+](=O)[O-])c1N1CC1 [Compound 18, 2-(aziridin-1-yl)-N-[2-(4-morpholino)ethyl]-3,5-dinitrobenzamide] | > 500 µM |

What follows are compounds tested on human ovarian carcinoma NR+ line (SC3.2), NR transfectant (assay: Cytotoxicity, 18 h drug exposure, SKOV NR+ line (SC3.2)). Details: SC3.2 cells, 18 h drug exposure; read-out: SKOV NR+ IC50.
Format: cell-based
From the text: as §1

| SMILES | IC50 |
| --- | --- |
| O=C(NCCCN1CCOCC1)c1cc(N2CC2)c([N+](=O)[O-])cc1[N+](=O)[O-] [Compound 5, 5-(aziridin-1-yl)-N-[3-(4-morpholino)propyl]-2,4-dinitrobenzamide] | 0.15 µM |
| O=C(NCCCCN1CCOCC1)c1cc(N2CC2)c([N+](=O)[O-])cc1[N+](=O)[O-] [Compound 6, N-[4-(4-morpholino)butyl]-5-(aziridin-1-yl)-2,4-dinitrobenzamide] | 0.3 µM |
| CN(CCN1CCOCC1)C(=O)c1cc(N2CC2)c([N+](=O)[O-])cc1[N+](=O)[O-] [Compound 4, 5-(aziridin-1-yl)-N-methyl-N-[2-(4-morpholino)ethyl]-2,4-dinitrobenzamide] | 13 µM |
| O=C(NCCN1CCOCC1)c1cc([N+](=O)[O-])cc([N+](=O)[O-])c1N1CC1 [Compound 18, 2-(aziridin-1-yl)-N-[2-(4-morpholino)ethyl]-3,5-dinitrobenzamide] | 11 µM |

Same assay, conditions: SKOV3 vs SC3.2; inter-experiment average

| SMILES | SKOV ratio of IC50s |
| --- | --- |
| O=C(NCCCN1CCOCC1)c1cc(N2CC2)c([N+](=O)[O-])cc1[N+](=O)[O-] [Compound 5, 5-(aziridin-1-yl)-N-[3-(4-morpholino)propyl]-2,4-dinitrobenzamide] | 730 |
| O=C(NCCCCN1CCOCC1)c1cc(N2CC2)c([N+](=O)[O-])cc1[N+](=O)[O-] [Compound 6, N-[4-(4-morpholino)butyl]-5-(aziridin-1-yl)-2,4-dinitrobenzamide] | 510 |
| CN(CCN1CCOCC1)C(=O)c1cc(N2CC2)c([N+](=O)[O-])cc1[N+](=O)[O-] [Compound 4, 5-(aziridin-1-yl)-N-methyl-N-[2-(4-morpholino)ethyl]-2,4-dinitrobenzamide] | 46 |
| O=C(NCCN1CCOCC1)c1cc([N+](=O)[O-])cc([N+](=O)[O-])c1N1CC1 [Compound 18, 2-(aziridin-1-yl)-N-[2-(4-morpholino)ethyl]-3,5-dinitrobenzamide] | >72 |
